Source: patent US20230321042A1, “COMBINATION THERAPY” (PFIZER INC., priority 2020, published 2023)

Assays:
MCF7 = test: 7-day anti-proliferation assay (CyQuant Direct) in MCF7; format: cell-based; settings: Homo sapiens, 168 h; MCF7, 7-day
Procedure: (§1) Functional effects of test compounds were measured in a 7-day anti-proliferation assay in three ER+ breast cancer cell lines. Cells were seeded in 96-well plates and allowed to adhere overnight prior to compound treatment.

CDK4/Cyclin D1 = CDK4/Cyclin D1 (Homo sapiens (Human), UniProt P11802); test: CDK4/Cyclin D1 mobility shift assay; format: biochemical; settings: 3.5 mM ATP
CDK4/Cyclin D1, sequence (P11802 whole entry): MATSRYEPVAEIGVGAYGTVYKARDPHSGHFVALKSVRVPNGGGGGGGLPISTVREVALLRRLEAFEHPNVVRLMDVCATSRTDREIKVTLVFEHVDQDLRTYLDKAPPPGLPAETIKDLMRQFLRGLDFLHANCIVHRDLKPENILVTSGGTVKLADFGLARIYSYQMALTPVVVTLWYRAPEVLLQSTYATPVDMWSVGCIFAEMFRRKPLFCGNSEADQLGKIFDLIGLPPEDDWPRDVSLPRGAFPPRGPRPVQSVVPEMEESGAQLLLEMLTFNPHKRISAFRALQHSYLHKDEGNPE
CDK4/Cyclin D1, sequence (P24385 whole entry partner): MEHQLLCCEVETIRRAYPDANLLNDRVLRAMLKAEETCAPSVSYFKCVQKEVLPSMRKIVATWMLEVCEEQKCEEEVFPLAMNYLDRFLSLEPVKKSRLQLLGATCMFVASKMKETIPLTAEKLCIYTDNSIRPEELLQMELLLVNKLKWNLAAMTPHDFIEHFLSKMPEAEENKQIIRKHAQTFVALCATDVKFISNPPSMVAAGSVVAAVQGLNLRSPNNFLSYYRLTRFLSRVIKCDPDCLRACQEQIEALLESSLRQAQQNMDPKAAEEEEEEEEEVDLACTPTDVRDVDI
Procedure: The purpose CDK4/Cyclin D1 assay is to evaluate the inhibition (% inhibition, Kiapp and Ki values) in the presence of small molecule inhibitors by using a fluorescence based microfluidic mobility shift assay. […] The mobility shift assay electrophoretically separates the fluorescently labelled peptides (substrate and phosphorylated product) following the kinase reaction. Both substrate and product are measured and the ratio of these values is used to generate % conversion of substrate to product by the LabChip EZ Reader. […] The reaction was stopped after 195 minutes by the addition of 50 µL of 30 mM EDTA. Ki determinations were made from a plot of the fractional velocity as a function of inhibitor concentration fit to the Morrison equation with the enzyme concentration as a variable.

T47D = test: 7-day anti-proliferation assay (CyQuant Direct) in T47D; format: cell-based; settings: Homo sapiens, 168 h
Procedure: as §1

HCC1428 = test: 7-day anti-proliferation assay (CyQuant Direct) in HCC1428; format: cell-based; settings: Homo sapiens, 168 h; HCC1428, 7-day
Procedure: as §1

CDK6/Cyclin D3 = CDK6/Cyclin D3 (Homo sapiens (Human), UniProt Q00534); test: CDK6/Cyclin D3 mobility shift assay; format: biochemical; settings: 3.5 mM ATP
CDK6/Cyclin D3, sequence (Q00534 whole entry): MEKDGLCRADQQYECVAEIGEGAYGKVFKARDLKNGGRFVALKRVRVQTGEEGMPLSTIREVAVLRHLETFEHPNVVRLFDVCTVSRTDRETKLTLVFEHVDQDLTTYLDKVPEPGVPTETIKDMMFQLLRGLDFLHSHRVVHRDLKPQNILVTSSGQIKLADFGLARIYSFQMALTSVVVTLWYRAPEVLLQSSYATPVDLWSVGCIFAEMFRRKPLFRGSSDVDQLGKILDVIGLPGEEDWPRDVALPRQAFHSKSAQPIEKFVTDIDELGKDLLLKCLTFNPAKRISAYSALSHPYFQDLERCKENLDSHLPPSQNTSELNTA
CDK6/Cyclin D3, sequence (P30281 whole entry partner): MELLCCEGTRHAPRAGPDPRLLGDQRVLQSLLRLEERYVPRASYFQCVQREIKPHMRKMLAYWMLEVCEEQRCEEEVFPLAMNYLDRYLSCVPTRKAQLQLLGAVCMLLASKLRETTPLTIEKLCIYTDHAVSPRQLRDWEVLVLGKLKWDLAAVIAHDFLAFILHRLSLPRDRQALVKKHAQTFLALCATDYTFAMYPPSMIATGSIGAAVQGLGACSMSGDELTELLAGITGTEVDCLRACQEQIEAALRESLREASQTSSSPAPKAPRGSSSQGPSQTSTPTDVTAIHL
Procedure: The mobility shift assay electrophoretically separates the fluorescently labelled peptides (substrate and phosphorylated product) following the kinase reaction. […] Typical reaction solutions contained 2% DMSO (± inhibitor), 2% glycerol, 10 mM MgCl2, 1 mM DTT, 3.5 mM ATP, 0.005% Tween 20 (TW-20), 3 µM 5-FAM-Dyrktide, 4 nM (active sites) activated CDK6/Cyclin D3 in 40 mM HEPES buffer at pH 7.5.
The reaction was stopped after 95 minutes by the addition of 50 µL of 30 mM EDTA. Ki determinations were made from a plot of the fractional velocity as a function of inhibitor concentration fit to the Morrison equation with the enzyme concentration as a variable.

[1] = In vivo study in MCF-7 breast cancer xenograft; settings: female, mouse, po, BID, MCF7 xenograft model, NSG mice, read-out: maximum tolerated dose level
Procedure: The MCF7 model was established by implanting passage 0 tumor fragments into recipient mice. To establish the MCF7 donor mice, tumor cells (5 × 10^6 cells/mouse with 50% Cultrex® Basement Membrane Matrix) were subcutaneously implanted in female NSG mice. Once reaching a range of 700 to 800 mm^3, donor tumors were subsequently transplanted into secondary recipient mice for study expansion. […] TGI was assessed on Day 21 post first dose (or Day 42 post tumor fragment implant). […] In the 150 mpk combination group, 50% of mice were found dead or were euthanized by the end of 21 days due to severe anemia.

## CCCNC(=O)O[C@@H]1CC[C@H](c2cc(NC(=O)Cc3ccnc(OC)c3)n[nH]2)C1 [COMPOUND C, (1R,3S)-3-(3-{[(2-methoxypyridin-4-yl)acetyl]amino}-1H-pyrazol-5-yl)cyclopentyl propylcarbamate]
MCF7
  EC50: 336 nM
CDK4/Cyclin D1
  Ki: 149 nM
T47D
  EC50: 443 nM
HCC1428
  EC50: 710 nM
CDK6/Cyclin D3
  Ki: 215 nM

## CC(=O)c1c(C)c2cnc(Nc3ccc(N4CCNCC4)cn3)nc2n(C2CCCC2)c1=O [Palbociclib, 6-acetyl-8-cyclopentyl-5-methyl-2-(5-piperazin-1-yl-pyridin-2-ylamino)-8H-pyrido[2,3-d]pyrimidin-7-one, reference compound]
MCF7
  EC50: 79 nM
T47D
  EC50: 87 nM
HCC1428
  EC50: 355 nM

## CC[C@H](C)NC(=O)O[C@@H]1CC[C@H](c2cc(NC(=O)Cc3ccccc3S(C)(=O)=O)n[nH]2)C1 [COMPOUND B, (1R,3S)-3-[3-({[2-(methylsulfonyl)phenyl]acetyl}amino)-1H-pyrazol-5-yl]cyclopentyl (2S)-butan-2-ylcarbamate]
MCF7
  EC50: 190 nM
CDK4/Cyclin D1
  Ki: 107 nM
T47D
  EC50: 220 nM
HCC1428
  EC50: 790 nM
CDK6/Cyclin D3
  Ki: 254 nM

## COCc1cc(C(=O)Nc2cc([C@H]3CC[C@@H](OC(=O)NC(C)C)C3)[nH]n2)n(C)n1 [COMPOUND A, (1R,3S)-3-[3-({[3-(methoxymethyl)-1-methyl-1H-pyrazol-5-yl]carbonyl}amino)-1H-pyrazol-5-yl]cyclopentyl propan-2-ylcarbamate]
MCF7
  EC50: 386 nM
T47D
  EC50: 403 nM
HCC1428
  EC50: > 1000 nM
CDK6/Cyclin D3
  Ki: 465 nM
[1]
  MTD at 21 days: 150 mg/kg
